This note sets out measurements from patent US20240382483A1, “HETEROCYCLIC EGFR INHIBITORS FOR USE IN THE TREATMENT OF CANCER” (Blueprint Medicines Corporation, priority 2021, published 2024).

Usually IC50 stands for the concentration that gives 50% inhibition.

Assay [1] deals with T1, EGFR (L858R T790M C797S) (Homo sapiens, UniProt P00533, C797S/L858R/T790M).
T1 construct: purchased SignalChem E10-122VG
Briefly: Biochemical EGFR inhibition assay (Caliper mobility shift), EGFR LRTMCS. Conditions: LRTMCS (PH) IC50 (nM) @ 1 mM ATP (Num), EGFR LRTMCS mutant. A digest of the protocol:
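Apparent IC50s were derived by plotting percent activity against the log of compound concentration. Activity was measured as phosphopeptide electrophoretically separated from substrate, after reactions at room temperature reached 10% to 20% phosphorylation and were halted with 35 mM EDTA.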

The target in assay [2] is T2, intracellular phosphorylation of EGFR in NCI-H1975 cell line that harbors the EGFR L858R T790M mutations (Homo sapiens, UniProt P00533, L858R/T790M).
T2 construct: NCI-H1975 cell line that harbors the EGFR L858R T790M mutations (ATCC, CRL-5908); host or cells: NCI-H1975
Briefly: NCI-H1975 pEGFR AlphaLISA assay. Conditions: NCI-H1975 cells (EGFR L858R T790M), p-EGFR (Tyr1068), 4-5 hours incubation; read-out: Ext pEGFR H1975 GMean IC50 (nM) Protocol: @Pharmaron AlphaLISA (Num). The format is cell-based. How it is done: On the next day, the test compounds and DMSO control were added into H1975 cell plate followed by incubation at 37C/5% CO2 for 4-5 hours. […] Then 5 μL of a donor bead mix was added to each well followed by overnight incubation at room temperature in dark. On the next day, the plate was read at a compatible plate reader to obtain pEGFR signal. Percent of pEGFR inhibition was plotted against log concentration of compounds to generate IC50 values.
(Bead proximity is the source of the signal in Alpha formats.)

Structures are written as SMILES.

T1 sequence (P00533 25-1210 T790M/C797S/L858R): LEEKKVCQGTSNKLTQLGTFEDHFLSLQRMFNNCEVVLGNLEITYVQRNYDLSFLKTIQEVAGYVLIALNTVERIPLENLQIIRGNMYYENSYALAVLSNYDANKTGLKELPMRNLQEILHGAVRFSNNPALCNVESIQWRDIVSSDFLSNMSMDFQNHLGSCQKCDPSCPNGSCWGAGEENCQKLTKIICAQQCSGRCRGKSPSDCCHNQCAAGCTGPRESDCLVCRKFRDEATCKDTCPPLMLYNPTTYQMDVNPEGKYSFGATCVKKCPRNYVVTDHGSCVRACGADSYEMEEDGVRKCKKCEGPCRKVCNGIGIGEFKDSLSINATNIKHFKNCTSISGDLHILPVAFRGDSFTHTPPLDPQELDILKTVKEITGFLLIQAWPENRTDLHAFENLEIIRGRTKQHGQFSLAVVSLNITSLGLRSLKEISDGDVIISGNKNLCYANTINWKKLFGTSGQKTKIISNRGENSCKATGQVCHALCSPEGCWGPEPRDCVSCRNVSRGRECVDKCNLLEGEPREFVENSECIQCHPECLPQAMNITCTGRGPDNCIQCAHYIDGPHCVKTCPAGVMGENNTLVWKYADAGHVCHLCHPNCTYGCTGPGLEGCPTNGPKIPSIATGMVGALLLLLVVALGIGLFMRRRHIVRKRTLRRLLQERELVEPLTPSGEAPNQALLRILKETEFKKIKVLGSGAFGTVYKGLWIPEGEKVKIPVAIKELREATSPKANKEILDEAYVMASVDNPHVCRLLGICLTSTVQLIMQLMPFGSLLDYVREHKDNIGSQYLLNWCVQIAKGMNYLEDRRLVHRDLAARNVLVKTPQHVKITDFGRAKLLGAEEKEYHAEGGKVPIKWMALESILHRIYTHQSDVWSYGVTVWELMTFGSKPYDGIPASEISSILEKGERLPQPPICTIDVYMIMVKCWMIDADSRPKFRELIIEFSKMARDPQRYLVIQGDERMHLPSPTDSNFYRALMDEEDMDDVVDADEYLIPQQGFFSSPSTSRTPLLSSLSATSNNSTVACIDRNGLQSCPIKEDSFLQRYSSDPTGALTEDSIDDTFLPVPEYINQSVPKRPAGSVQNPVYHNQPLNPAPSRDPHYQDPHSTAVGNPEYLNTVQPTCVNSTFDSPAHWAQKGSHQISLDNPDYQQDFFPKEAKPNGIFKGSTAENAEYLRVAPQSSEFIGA
T2 sequence (P00533 25-1210 T790M/L858R): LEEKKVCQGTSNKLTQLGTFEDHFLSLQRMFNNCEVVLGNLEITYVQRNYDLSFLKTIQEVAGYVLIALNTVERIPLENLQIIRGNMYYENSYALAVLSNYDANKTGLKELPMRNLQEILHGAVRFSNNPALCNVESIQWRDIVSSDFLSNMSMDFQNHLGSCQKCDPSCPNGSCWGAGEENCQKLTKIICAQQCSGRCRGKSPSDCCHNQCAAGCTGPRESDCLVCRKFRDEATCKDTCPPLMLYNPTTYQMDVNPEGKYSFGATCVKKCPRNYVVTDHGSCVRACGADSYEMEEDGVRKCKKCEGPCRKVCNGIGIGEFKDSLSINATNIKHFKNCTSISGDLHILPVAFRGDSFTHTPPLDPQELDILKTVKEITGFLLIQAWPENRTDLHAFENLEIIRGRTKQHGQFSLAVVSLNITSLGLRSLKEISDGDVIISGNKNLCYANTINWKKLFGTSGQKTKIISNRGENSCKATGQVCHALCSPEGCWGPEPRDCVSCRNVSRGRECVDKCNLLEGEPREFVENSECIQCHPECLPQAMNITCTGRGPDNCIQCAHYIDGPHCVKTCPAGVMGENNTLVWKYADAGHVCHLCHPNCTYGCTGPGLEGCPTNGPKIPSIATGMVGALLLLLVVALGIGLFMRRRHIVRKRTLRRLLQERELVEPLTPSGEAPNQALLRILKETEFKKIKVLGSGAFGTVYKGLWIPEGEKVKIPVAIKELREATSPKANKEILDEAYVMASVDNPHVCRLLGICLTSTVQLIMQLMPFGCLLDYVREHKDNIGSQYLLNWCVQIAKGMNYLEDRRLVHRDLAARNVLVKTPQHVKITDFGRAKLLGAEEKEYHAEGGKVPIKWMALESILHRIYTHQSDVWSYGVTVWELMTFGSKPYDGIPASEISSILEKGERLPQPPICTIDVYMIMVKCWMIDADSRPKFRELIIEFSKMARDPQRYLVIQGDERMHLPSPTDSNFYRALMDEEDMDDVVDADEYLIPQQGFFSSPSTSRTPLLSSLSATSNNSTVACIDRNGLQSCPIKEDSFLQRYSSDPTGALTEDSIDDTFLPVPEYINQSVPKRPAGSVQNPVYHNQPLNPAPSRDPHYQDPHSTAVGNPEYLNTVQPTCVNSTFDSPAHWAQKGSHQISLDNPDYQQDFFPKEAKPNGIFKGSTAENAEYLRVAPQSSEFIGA

As for `CC(C)c1ncc(N2CC[C@H]2C)c2cnc(Nc3ccnc(N4CC[C@@H](O)[C@@](C)(F)C4)n3)cc12` [Example 106, (3S,4R)-3-fluoro-1-(4-((5-isopropyl-8-((R)-2-methylazetidin-1-yl)-2,6-naphthyridin-3-yl)amino)pyrimidin-2-yl)-3-methylpiperidin-4-ol], the IC50 in assay [1] was less than 15 nM; in assay [2], 20 to 30 nM.
As for `CO[C@H]1CN(c2ncc(C(C)C)c3cc(Nc4ccnc(N5CC[C@@H](O)[C@@](C)(F)C5)n4)ncc23)[C@@H]1C` [Example 107, (3S,4R)-3-fluoro-1-(4-((5-isopropyl-8-((2R,3S)-3-methoxy-2-methylazetidin-1-yl)-2,7-naphthyridin-3-yl)amino)pyrimidin-2-yl)-3-methylpiperidin-4-ol], the figures for the IC50 in assay [1] and in assay [2] were less than 15 nM and less than 10 nM, respectively.
For `[2H]C([2H])([2H])O[C@H]1CN(c2ncc(C(C)C)c3cc(Nc4ccnc(N5CC[C@@H](O)[C@@](C)(F)C5)n4)ncc23)[C@@H]1C` [Example 108, (3S,4R)-3-fluoro-1-(4-((5-isopropyl-8-((2R,3S)-3-(methoxy-d3)-2-methylazetidin-1-yl)-2,7-naphthyridin-3-yl)amino)pyrimidin-2-yl)-3-methylpiperidin-4-ol] the same measures were less than 15 nM and 10 to 20 nM.
As for `CC(C)c1cnc(N2C[C@H](OC(F)F)[C@H]2C)c2cnc(Nc3ccnc(N4CC[C@@H](O)[C@@](C)(F)C4)n3)cc12` [Example 109, (3S,4R)-1-(4-((8-((2R,3S)-3-(difluoromethoxy)-2-methylazetidin-1-yl)-5-isopropyl-2,7-naphthyridin-3-yl)amino)pyrimidin-2-yl)-3-fluoro-3-methylpiperidin-4-ol], the IC50 fell in the range of 20 to 30 nM in assay [1] and 10 to 20 nM in assay [2].
As for `CC(C)c1ccc(N2CCC2)c2cnc(Nc3ccnc(N4CC[C@@H](O)[C@@](C)(F)C4)n3)cc12` [Example 110, (3S,4R)-1-(4-((8-(azetidin-1-yl)-5-isopropylisoquinolin-3-yl)amino)pyrimidin-2-yl)-3-fluoro-3-methylpiperidin-4-ol], the IC50 was 30 to 100 nM in assay [1] and more than 50 nM in assay [2].
On the same counts, the results for `CC(C)c1ccc(N2CC(c3nnco3)C2)c2cnc(Nc3ccnc(N4CC[C@@H](O)[C@@](C)(F)C4)n3)cc12` [Example 111, (3S,4R)-1-(4-((8-(3-(1,3,4-oxadiazol-2-yl)azetidin-1-yl)-5-isopropylisoquinolin-3-yl)amino)pyrimidin-2-yl)-3-fluoro-3-methylpiperidin-4-ol] are less than 15 nM and less than 10 nM.
Turning to `CC(C)c1ccc(N2CC(c3nncn3C)C2)c2cnc(Nc3ccnc(N4CC[C@@H](O)[C@@](C)(F)C4)n3)cc12` [Example 112, (3S,4R)-3-fluoro-1-(4-((5-isopropyl-8-(3-(4-methyl-4H-1,2,4-triazol-3-yl)azetidin-1-yl)isoquinolin-3-yl)amino)pyrimidin-2-yl)-3-methylpiperidin-4-ol], the IC50 in assay [1] is less than 15 nM; in assay [2], 10 to 20 nM.
Consider `CC(C)c1ccc(N2CC(C)(c3nnco3)C2)c2cnc(Nc3ccnc(N4CC[C@@H](O)[C@@](C)(F)C4)n3)cc12` [Example 113, (3S,4R)-3-fluoro-1-(4-((5-isopropyl-8-(3-methyl-3-(1,3,4-oxadiazol-2-yl)azetidin-1-yl)isoquinolin-3-yl)amino)pyrimidin-2-yl)-3-methylpiperidin-4-ol], for which the figures for the concentration for half-maximal inhibition (IC50) in assay [1] and in assay [2] were 20 to 30 nM and 10 to 20 nM, respectively.
With `CC(C)c1nnc(N2CCCC2)c2cnc(Nc3ccnc(N4CC[C@@H](O)[C@@](C)(F)C4)n3)cc12` [Example 114, (3S,4R)-3-fluoro-1-(4-((1-isopropyl-4-(pyrrolidin-1-yl)pyrido[3,4-d]pyridazin-7-yl)amino)pyrimidin-2-yl)-3-methylpiperidin-4-ol], the half-inhibitory concentration (IC50) in assay [1] is 30 to 100 nM; in assay [2], more than 50 nM.
On the same counts, the results for `CC(C)c1cnc(N2CCC[C@H]2CN(C)C)c2cnc(Nc3ccnc(N4CC[C@@H](O)[C@@](C)(F)C4)n3)cc12` [Example 115, (3S,4R)-1-(4-((8-((S)-2-((dimethylamino)methyl)pyrrolidin-1-yl)-5-isopropyl-2,7-naphthyridin-3-yl)amino)pyrimidin-2-yl)-3-fluoro-3-methylpiperidin-4-ol] are 30 to 100 nM and 30 to 50 nM.
For `CC(C)c1cnc(N2CCC23CN(C)C3)c2cnc(Nc3ccnc(N4CCC5(CCO5)CC4)n3)cc12` [Example 116, N-(2-(1-oxa-7-azaspiro[3.5]nonan-7-yl)pyrimidin-4-yl)-5-isopropyl-8-(6-methyl-1,6-diazaspiro[3.3]heptan-1-yl)-2,7-naphthyridin-3-amine] the same measures were 20 to 30 nM and more than 50 nM.
In the case of `CC(C)c1cnc(N2CC(O)C2)c2cnc(Nc3ccnc(N4CCC5(CCO5)CC4)n3)cc12` [Example 117, 1-(6-((2-(1-oxa-7-azaspiro[3.5]nonan-7-yl)pyrimidin-4-yl)amino)-4-isopropyl-2,7-naphthyridin-1-yl)azetidin-3-ol], the IC50 is 15 to 20 nM in assay [1] and more than 50 nM in assay [2].
For `CC(C)c1cnc(N2C[C@H](O)[C@H]2C)c2cnc(Nc3ccnc(N4CCC(C)(O)CC4)n3)cc12` [Example 128, 1-(4-((8-((2R,3S)-3-hydroxy-2-methylazetidin-1-yl)-5-isopropyl-2,7-naphthyridin-3-yl)amino)pyrimidin-2-yl)-4-methylpiperidin-4-ol] the same measures were less than 15 nM and more than 50 nM.
For `CC(C)c1ccc(N2C[C@H](n3ccnn3)[C@H]2C)c2cnc(Nc3ccnc(N4CCC(C)(O)CC4)n3)cc12` [Example 129, 1-(4-((5-isopropyl-8-((2R,3S)-2-methyl-3-(1H-1,2,3-triazol-1-yl)azetidin-1-yl)isoquinolin-3-yl)amino)pyrimidin-2-yl)-4-methylpiperidin-4-ol] the same measures were 30 to 100 nM and 20 to 30 nM.
Consider `CC(C)c1cnc(N2C[C@H](n3ccnn3)[C@H]2C)c2cnc(Nc3ccnc(N4CCC(C)(O)CC4)n3)cc12` [Example 130, 1-(4-((5-isopropyl-8-((2R,3S)-2-methyl-3-(1H-1,2,3-triazol-1-yl)azetidin-1-yl)-2,7-naphthyridin-3-yl)amino)pyrimidin-2-yl)-4-methylpiperidin-4-ol], for which the half-inhibitory concentration (IC50) is 15 to 20 nM in assay [1] and 20 to 30 nM in assay [2].
Regarding `CC(C)c1cnc(N2CC[C@H]2C)c2cnc(Nc3ccnc(N4CCC(O)(CO)CC4)n3)cc12` [Example 131, (R)-4-(hydroxymethyl)-1-(4-((5-isopropyl-8-(2-methylazetidin-1-yl)-2,7-naphthyridin-3-yl)amino)pyrimidin-2-yl)piperidin-4-ol], the concentration for half-maximal inhibition (IC50) was 15 to 20 nM in assay [1] and more than 50 nM in assay [2].
`[2H]C([2H])([2H])O[C@H]1CCN(c2nccc(Nc3cc4c(C(C)C)cnc(N5C[C@H](OCCO)[C@H]5C)c4cn3)n2)C[C@H]1F` [Example 137, 2-(((2R,3S)-1-(6-((2-((3R,4S)-3-fluoro-4-(methoxy-d3)piperidin-1-yl)pyrimidin-4-yl)amino)-4-isopropyl-2,7-naphthyridin-1-yl)-2-methylazetidin-3-yl)oxy)ethan-1-ol]: the results for the IC50 in assay [1] and in assay [2] were less than 15 nM and less than 10 nM, respectively.
As for `[2H]C([2H])([2H])O[C@H]1CCN(c2nccc(Nc3cc4c(C(C)C)cnc(N5C[C@H](O)[C@H]5C)c4cn3)n2)C[C@H]1F` [Example 138, (2R,3S)-1-(6-((2-((3R,4S)-3-fluoro-4-(methoxy-d3)piperidin-1-yl)pyrimidin-4-yl)amino)-4-isopropyl-2,7-naphthyridin-1-yl)-2-methylazetidin-3-ol], the values for the IC50 in assay [1] and in assay [2] were less than 15 nM and 10 to 20 nM, respectively.
For `[2H]C([2H])([2H])O[C@@H]1CCN(c2nccc(Nc3cc4c(C(C)C)cnc(N5C[C@H](O)[C@H]5C)c4cn3)n2)C[C@@H]1F` [Example 139, (2R,3S)-1-(6-((2-((3S,4R)-3-fluoro-4-(methoxy-d3)piperidin-1-yl)pyrimidin-4-yl)amino)-4-isopropyl-2,7-naphthyridin-1-yl)-2-methylazetidin-3-ol] the same measures were less than 15 nM and less than 10 nM.
`[2H]C([2H])([2H])O[C@@H]1CCN(c2nccc(Nc3cc4c(C(C)C)cnc(N5C[C@H](OCCO)[C@H]5C)c4cn3)n2)C[C@@H]1F` [Example 140, 2-(((2R,3S)-1-(6-((2-((3S,4R)-3-fluoro-4-(methoxy-d3)piperidin-1-yl)pyrimidin-4-yl)amino)-4-isopropyl-2,7-naphthyridin-1-yl)-2-methylazetidin-3-yl)oxy)ethan-1-ol]: the 50% inhibitory concentration (IC50) was less than 15 nM in assay [1] and less than 10 nM in assay [2].
On the same counts, the results for `CC(C)c1cnc(N2CC[C@H]2C)c2cnc(Nc3ccnc(N4CC[C@H](OCCO)[C@H](F)C4)n3)cc12` [Example 141, 2-(((3R,4S)-3-fluoro-1-(4-((5-isopropyl-8-((R)-2-methylazetidin-1-yl)-2,7-naphthyridin-3-yl)amino)pyrimidin-2-yl)piperidin-4-yl)oxy)ethan-1-ol] are less than 15 nM and less than 10 nM.
